Read-outs that look alike come from different tables or passages of the source.
Tested on: cancer cells
Assay: MTS assay: inhibition of cell growth (formazan absorbance at 492 nm after 72 hours with test compound)
Type: cell-based
Conditions: inhibition class
In short: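 DMEM with 1% FBS; cells seeded at 3000/well and grown 18 h at 37 °C, then exposed to compound for 72 h and to MTS/PMS for 4 h. IC50 is the concentration giving a 50% absorbance drop; grades are % inhibition bands.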

[1] = Homo sapiens, DLD-1 cells, read-out: DLD-1, MTS 72 hours at 10 uM
[2] = Homo sapiens, KATO III cells, read-out: KATO III, MTS 72 hours at 10 uM
[3] = Homo sapiens, MDA-MB-231 cells, read-out: MDA-MB-231, MTS 72 hours at 10 uM
[4] = Homo sapiens, NCI-H1299 cells, read-out: NCI-H1299, MTS 72 hours at 10 uM
[5] = Homo sapiens, PC-3 cells, read-out: PC-3, MTS 72 hours at 10 uM
[6] = PACA-2 cells, read-out: PACA-2, MTS 72 hours at 10 uM

| Compound | inhibition at 10 µM [1] [%] | inhibition at 10 µM [2] [%] | inhibition at 10 µM [3] [%] | inhibition at 10 µM [4] [%] | inhibition at 10 µM [5] [%] | inhibition at 10 µM [6] [%] |
| --- | --- | --- | --- | --- | --- | --- |
| COc1cccc(CCNc2nc3c4c(n[nH]c4n2)CCN3Cc2ccccc2)c1OC [Compound 39, 6-benzyl-N-[2-(2,3-dimethoxyphenyl)ethyl]-2,6,7,8-tetrahydro-1,2,3,5,6-pentaazaacenaphthylen-4-amine] | < 50 | < 50 | < 50 | < 50 | < 50 | < 50 |
| COc1ccc(CN2CCCc3n[nH]c4nc(NCCN5CCOCC5)nc2c34)cc1 [Compound 249, 6-(4-methoxybenzyl)-N-(2-morpholin-4-ylethyl)-6,7,8,9-tetrahydro-2H-1,2,3,5,6-pentaazabenzo[cd]azulen-4-amine] | < 50 | < 50 | < 50 | < 50 | < 50 | < 50 |
| CCOC(=O)N1CCN(c2nc3c4c(n[nH]c4n2)CCN3Cc2ccccc2)CC1 [Compound 89, ethyl 4-(6-benzyl-2,6,7,8-tetrahydro-1,2,3,5,6-pentaazaacenaphthylen-4-yl)piperazine-1-carboxylate] | < 50 | < 50 | > 79 | < 50 | > 79 | < 50 |
| O=C(c1ccco1)N1CCN(c2nc3c4c(n[nH]c4n2)CCN3Cc2ccccc2)CC1 [Compound 53, 6-benzyl-4-[4-(2-furoyl)piperazin-1-yl]-2,6,7,8-tetrahydro-1,2,3,5,6-pentaazaacenaphthylene] | < 50 | < 50 | 50 to 79 | < 50 | < 50 | < 50 |
| COc1ccc(CN2CCc3n[nH]c4nc(NCc5ccccc5Cl)nc2c34)cc1 [Compound 112, N-(2-chlorobenzyl)-6-(4-methoxybenzyl)-2,6,7,8-tetrahydro-1,2,3,5,6-pentaazaacenaphthylen-4-amine] | > 79 | > 79 | > 79 | < 50 | > 79 | > 79 |
| COc1ccc(CN2CCCc3n[nH]c4nc(N5CCCC5)nc2c34)cc1 [Compound 244, 6-(4-methoxybenzyl)-4-pyrrolidin-1-yl-6,7,8,9-tetrahydro-2H-1,2,3,5,6-pentaazabenzo[cd]azulene] | < 50 | < 50 | < 50 | < 50 | < 50 | < 50 |
| c1ccc(CN2CCc3n[nH]c4nc(NCCc5cccnc5)nc2c34)cc1 [Compound 30, 6-benzyl-N-(2-pyridin-3-ylethyl)-2,6,7,8-tetrahydro-1,2,3,5,6-pentaazaacenaphthylen-4-amine] | 50 to 79 | 50 to 79 | 50 to 79 | < 50 | < 50 | < 50 |
| COc1ccc(CN2CCCc3n[nH]c4nc(N5CCCCC5)nc2c34)cc1 [Compound 245, 6-(4-methoxybenzyl)-4-piperidin-1-yl-6,7,8,9-tetrahydro-2H-1,2,3,5,6-pentaazabenzo[cd]azulene] | < 50 | < 50 | < 50 | < 50 | < 50 | < 50 |
| c1ccc(CN2CCc3n[nH]c4nc(N5CCN(c6ccccn6)CC5)nc2c34)cc1 [Compound 95, 6-benzyl-4-(4-pyridin-2-ylpiperazin-1-yl)-2,6,7,8-tetrahydro-1,2,3,5,6-pentaazaacenaphthylene] | < 50 | < 50 | < 50 | < 50 | < 50 | < 50 |
| O=C1CCCN1CCCNc1nc2c3c(n[nH]c3n1)CCN2Cc1ccccc1 [Compound 51, 1-{3-[(6-benzyl-2,6,7,8-tetrahydro-1,2,3,5,6-pentaazaacenaphthylen-4-yl)amino]propyl}pyrrolidin-2-one] | < 50 | < 50 | < 50 | < 50 | < 50 | < 50 |
| CN1CCCC1CCNc1nc2c3c(n[nH]c3n1)CCN2Cc1ccccc1 (stereo not drawn) [Compound 41, 6-benzyl-N-[2-(1-methylpyrrolidin-2-yl)ethyl]-2,6,7,8-tetrahydro-1,2,3,5,6-pentaazaacenaphthylen-4-amine] | < 50 | < 50 | 50 to 79 | < 50 | < 50 | < 50 |
| COc1ccc(CCN(C)c2nc3c4c(n[nH]c4n2)CCN3Cc2ccccc2)cc1OC [Compound 14, 6-benzyl-N-[2-(3,4-dimethoxyphenyl)ethyl]-N-methyl-2,6,7,8-tetrahydro-1,2,3,5,6-pentaazaacenaphthylen-4-amine] | < 50 | < 50 | < 50 | < 50 | < 50 | < 50 |
| c1ccc(CN2CCc3n[nH]c4nc(NCc5ccc(Oc6ccccc6)cc5)nc2c34)cc1 [Compound 40] | < 50 | 50 to 79 | < 50 | 50 to 79 | < 50 | 50 to 79 |
| CC(=O)NCCNc1nc2c3c(n[nH]c3n1)CCN2Cc1ccccc1 [Compound 68, N-{2-[(6-benzyl-2,6,7,8-tetrahydro-1,2,3,5,6-pentaazaacenaphthylen-4-yl)amino]ethyl}acetamide] | < 50 | < 50 | < 50 | < 50 | < 50 | < 50 |
| CN(CCO)c1nc2c3c(n[nH]c3n1)CCN2Cc1ccccc1 [Compound 64, 2-[(6-benzyl-2,6,7,8-tetrahydro-1,2,3,5,6-pentaazaacenaphthylen-4-yl)(methyl)amino]ethanol] | < 50 | < 50 | < 50 | < 50 | < 50 | < 50 |
| CS(=O)(=O)c1nc2c3c(n[nH]c3n1)CCN2Cc1ccccc1 [Compound 2, 6-benzyl-4-(methylsulfonyl)-2,6,7,8-tetrahydro-1,2,3,5,6-pentaazaacenaphthylene] | < 50 | < 50 | < 50 | < 50 | < 50 | < 50 |
| O=C(NCc1ccccc1)C1CN(Cc2ccccc2)c2nc(NCc3ccccc3Cl)nc3[nH]nc1c23 (stereo not drawn) [Compound 229, N,6-dibenzyl-4-[(2-chlorobenzyl)amino]-2,6,7,8-tetrahydro-1,2,3,5,6-pentaazaacenaphthylene-8-carboxamide] | < 50 | < 50 | < 50 | < 50 | 50 to 79 | < 50 |
| C1CCC(Nc2nc3c4c(n[nH]c4n2)CCN3)CC1 [Compound 123, N-cyclohexyl-2,6,7,8-tetrahydro-1,2,3,5,6-pentaazaacenaphthylen-4-amine] | < 50 | < 50 | < 50 | < 50 | < 50 | < 50 |
| c1ccc(CC2CCN(c3nc4c5c(n[nH]c5n3)CCN4Cc3ccccc3)CC2)cc1 [Compound 45, 6-benzyl-4-(4-benzylpiperidin-1-yl)-2,6,7,8-tetrahydro-1,2,3,5,6-pentaazaacenaphthylene] | < 50 | < 50 | < 50 | < 50 | < 50 | < 50 |
| FC(F)(F)c1cccc(N2CCN(c3nc4c5c(n[nH]c5n3)CCN4Cc3ccccc3)CC2)c1 [Compound 38, 6-benzyl-4-{4-[3-(trifluoromethyl)phenyl]piperazin-1-yl}-2,6,7,8-tetrahydro-1,2,3,5,6-pentaazaacenaphthylene] | < 50 | < 50 | < 50 | < 50 | < 50 | < 50 |
| Cn1c(CNc2nc3c4c(n[nH]c4n2)CCN3Cc2ccccc2)nc2ccccc21 [Compound 21, 6-benzyl-N-[(1-methyl-1H-benzimidazol-2-yl)methyl]-2,6,7,8-tetrahydro-1,2,3,5,6-pentaazaacenaphthylen-4-amine] | < 50 | 50 to 79 | < 50 | < 50 | < 50 | < 50 |
| COc1cccc(CCNc2nc3c4c(n[nH]c4n2)C(C(=O)NCc2ccccc2)CN3Cc2ccccc2)c1 (stereo not drawn) [Compound 224, N,6-dibenzyl-4-{[2-(3-methoxyphenyl)ethyl]amino}-2,6,7,8-tetrahydro-1,2,3,5,6-pentaazaacenaphthylene-8-carboxamide] | < 50 | < 50 | < 50 | < 50 | < 50 | < 50 |
| COc1ccccc1CCNc1nc2c3c(n[nH]c3n1)CCN2Cc1ccccc1 [Compound 48, 6-benzyl-N-[2-(2-methoxyphenyl)ethyl]-2,6,7,8-tetrahydro-1,2,3,5,6-pentaazaacenaphthylen-4-amine] | < 50 | < 50 | 50 to 79 | < 50 | < 50 | < 50 |
